Test results: PMC11218446, “Antibacterial efficacy and membrane mechanism of action of the Serratia-derived non-ionic lipopeptide, serrawettin W2-FL10” (Microbiology Spectrum, 2024)
Values after ≈ are worked out from the molar mass of the structure shown.

Columns and labels:
[1] = system: three S. aureus strains; experiment: Membrane depolarization assay, DiSC3(5), summary; format: cell-based, Staphylococcus aureus; settings: abstract
Protocol: The membrane depolarization capability (ability to disrupt membrane potential) of the W2-FL10 against S. aureus ATCC 25923, S. aureus RN4220, or MRSA Xen 30 was determined using the voltage-sensitive fluorescent probe, DiSC3(5) ([20]). Briefly, black 96-well plates were prepared with W2-FL10 at 12.5 µg/mL and 25 µg/mL, while 4 and 8 µg/mL of melittin were used as a positive depolarization control, and the plates were air dried as described in the “Antibacterial activity: broth microdilution assay” section. The S. aureus strains were inoculated into MHB and grown to the mid-log phase (OD600 of 0.5–0.6). Cells were harvested by centrifugation at 3,000 rpm for 10 min and resuspended in HEPES buffer (5 mM, pH 7.4, containing 20 mM glucose; 100 mM KCl) to OD600 of 0.05. Thereafter, DiSC3(5) (stock concentration of 400 µM in 100% DMSO) was added to the cell suspension to a final concentration of 0.4 µM, and cells were incubated in the dark at room temperature for 40 min. Cell suspensions (100 µL) were then dispensed into the wells of the black 96-well plate. […] Fluorometric readings of the plate were conducted at 1 min intervals over 12 min (readings began 60 s after cells were added to the plates) using a Tecan Spark at 622 nm excitation wavelength and 670 nm emission wavelength. […]

[2] = system: S. aureus ATCC 25923; experiment: Membrane depolarization assay, DiSC3(5); format: cell-based, Staphylococcus aureus
Protocol: (§1) The membrane depolarization capability (ability to disrupt membrane potential) of the W2-FL10 against S. aureus ATCC 25923, S. aureus RN4220, or MRSA Xen 30 was determined using the voltage-sensitive fluorescent probe, DiSC3(5) ([20]). Briefly, black 96-well plates were prepared with W2-FL10 at 12.5 µg/mL and 25 µg/mL, while 4 and 8 µg/mL of melittin were used as a positive depolarization control, and the plates were air dried as described in the “Antibacterial activity: broth microdilution assay” section. The S. aureus strains were inoculated into MHB and grown to the mid-log phase (OD600 of 0.5–0.6). Cells were harvested by centrifugation at 3,000 rpm for 10 min and resuspended in HEPES buffer (5 mM, pH 7.4, containing 20 mM glucose; 100 mM KCl) to OD600 of 0.05. Thereafter, DiSC3(5) (stock concentration of 400 µM in 100% DMSO) was added to the cell suspension to a final concentration of 0.4 µM, and cells were incubated in the dark at room temperature for 40 min. Cell suspensions (100 µL) were then dispensed into the wells of the black 96-well plate. Sterile broth and the OD-adjusted inoculum with DiSC3(5) were included as a non-fluorescent control, sterile broth with DiSC3(5) was included as a sterility control, and melittin was included as membrane depolarization control. All the tests were performed in triplicate, with independent duplicates. Fluorometric readings of the plate were conducted at 1 min intervals over 12 min (readings began 60 s after cells were added to the plates) using a Tecan Spark at 622 nm excitation wavelength and 670 nm emission wavelength. Statistical comparison of the kinetic trends elicited by the treatment with peptide with the control (cells alone) was done using two-way ANOVA with Bonferroni’s post hoc test.

[3] = system: S. aureus RN4220; experiment: Membrane depolarization assay, DiSC3(5); format: cell-based, Staphylococcus aureus
Protocol: as §1

[4] = system: MRSA Xen 30; experiment: Membrane depolarization assay, DiSC3(5); format: cell-based, Staphylococcus aureus
Protocol: as §1

[5] = system: Enterococcus faecium; settings: cited from earlier work
Excerpt: The antimicrobial activity of the serrawettin W2-FI10 analog (i.e., C10H18O2-Leu-Ser-Thr-Phe-Ile), has been extensively investigated.

[6] = system: three S. aureus strains; experiment: Membrane permeability assay, propidium iodide, summary; format: cell-based, Staphylococcus aureus; settings: discussion
Protocol: The membrane permeability capabilities of the W2-FL10 against the S. aureus strains were determined using PI ([56]). Briefly, black 96-well plates were prepared with W2-FL10 at 6.25, 12.5, and 25 µg/mL, while 4–16 µg/mL of melittin was used as a positive permeability control, and the plates were dried as described in the “Antibacterial activity: broth microdilution assay” section. The S. aureus strains were inoculated into MHB, grown to mid-log phase (OD600 of 0.5–0.6), and diluted to OD600 of 0.3. PI (stock concentration of 1 mg/mL in analytical quality H2O) was added to the cell suspension to a final concentration of 10 µg/mL and cells were incubated in the dark at room temperature for 20 min. Thereafter, 100 µL of OD-adjusted PI cells in the mid-log phase were dispensed into each well. Sterile broth and the OD-adjusted inoculum with PI were included as a non-fluorescent control, while sterile broth with PI was included as a sterility control, and melittin was included as membrane depolarization control. […] Fluorometric readings of the plate were conducted in 4-min intervals over 60 min (readings began ~60 s after cells were added to the plate) using a Tecan Spark at 535 nm excitation wavelength and 617 nm emission wavelength.
The leakage kinetics or PI permeabilization kinetic was assessed using a rate parameter of ΔPI fluorescence per minute. […]

[7] = Oligomer detection by ESI-HRMS; format: physicochemical; settings: MaxEnt 3 mass spectrum (Fig. 1C)
[8] = system: S. aureus ATCC 25923; experiment: Membrane permeability assay, propidium iodide; format: cell-based, Staphylococcus aureus; settings: 25 µg/mL
Protocol: (§2) The membrane permeability capabilities of the W2-FL10 against the S. aureus strains were determined using PI ([56]). Briefly, black 96-well plates were prepared with W2-FL10 at 6.25, 12.5, and 25 µg/mL, while 4–16 µg/mL of melittin was used as a positive permeability control, and the plates were dried as described in the “Antibacterial activity: broth microdilution assay” section. The S. aureus strains were inoculated into MHB, grown to mid-log phase (OD600 of 0.5–0.6), and diluted to OD600 of 0.3. PI (stock concentration of 1 mg/mL in analytical quality H2O) was added to the cell suspension to a final concentration of 10 µg/mL and cells were incubated in the dark at room temperature for 20 min. Thereafter, 100 µL of OD-adjusted PI cells in the mid-log phase were dispensed into each well. Sterile broth and the OD-adjusted inoculum with PI were included as a non-fluorescent control, while sterile broth with PI was included as a sterility control, and melittin was included as membrane depolarization control. All the tests were performed in triplicate, with independent duplicates. Fluorometric readings of the plate were conducted in 4-min intervals over 60 min (readings began ~60 s after cells were added to the plate) using a Tecan Spark at 535 nm excitation wavelength and 617 nm emission wavelength.
(§3) The leakage kinetics or PI permeabilization kinetic was assessed using a rate parameter of ΔPI fluorescence per minute. This was done by fitting linear regression lines on the linear sections, namely 6–16 min for melittin and 6–18 min, as well as 34–50 min for W2-FL10. The rates of PI permeabilization were compared between the three S. aureus strains using a one-way ANOVA with Bonferroni’s post hoc test.

[9] = system: S. aureus RN4220; experiment: Membrane permeability assay, propidium iodide; format: cell-based, Staphylococcus aureus; settings: 25 µg/mL
Protocol: as §2, §3

[10] = system: MRSA Xen 30; experiment: Membrane permeability assay, propidium iodide; format: cell-based, Staphylococcus aureus; settings: 25 µg/mL
Protocol: as §2, §3

[11] = system: S. aureus ATCC 25923; experiment: Scanning electron microscopy; format: cell-based, Staphylococcus aureus; settings: 25 µg/mL, 1 h
Protocol: (§4) SEM was performed to visualize the bacterial membrane morphology following treatment ([24]). Briefly, the S. aureus strains were prepared as described in the “Antibacterial activity: broth microdilution assay” section and harvested by centrifugation at 3,000 rpm for 10 min. The cells were re-suspended in PBS at a dilution of ~10^7 CFU/mL (OD600 = 0.4). The diluted cultures were then treated with 25 µg/mL of W2-FL10, for 1 h, while cells without W2-FL10 were used as a control. Specimens were resuspended in 2.5% (vol/vol) glutaraldehyde solution in 0.1 M PBS (pH 7.2) and fixed for approximately 24 h. After the primary fixation, bacterial cells were pelleted and rinsed with PBS. Dehydration of samples through an ethanol series (30%, 50%, 70%, 90%, 95%, and 100% for 10 min each) was performed, followed by filtration onto a filter paper (pore size of 0.2 µm), which was glued onto an aluminum grid (11 mm diameter). The grid was dried with hexamethyldisilazane and coated with gold-palladium alloy. The grids were then inspected with a Tescan MIRA3 RISE Scanning Electron Microscope at the Electron Microscope Unit of the University of Cape Town.

[12] = system: S. aureus RN4220; experiment: Scanning electron microscopy; format: cell-based, Staphylococcus aureus; settings: 25 µg/mL, 1 h; primarily one large lesion per cell
Protocol: as §4

[13] = system: MRSA Xen 30; experiment: Scanning electron microscopy; format: cell-based, Staphylococcus aureus; settings: 25 µg/mL, 1 h
Protocol: as §4

Compound: CCCCCCCC1CC(=O)N[C@H](CC(C)C)C(=O)N[C@@H](CO)C(=O)N[C@@H]([C@@H](C)O)C(=O)N[C@H](Cc2ccccc2)C(=O)N[C@@H](CC(C)C)C(=O)O1 (stereo partly shown) [W2-FL10, serrawettin W2-FL10]
- time within which membrane potential was dissipated [1]: ≤ 12 min
- increase in DiSC3(5) fluorescent signal, in words ([2]; 12.5 µg/mL, up to 720 s (Fig. 4A)): negligible
- time at which the DiSC3(5) fluorescent signal doubled ([2]; 25 µg/mL): 660 s
- increase in DiSC3(5) fluorescent signal, in words ([3]; 12.5 µg/mL, up to 720 s (Fig. 4C)): negligible
- time at which the DiSC3(5) fluorescent signal doubled ([3]; 25 µg/mL): 480 s
- depolarization, in words ([4]; 12.5 µg/mL, up to 720 s): appreciable depolarization
- time at which the DiSC3(5) fluorescent signal doubled ([4]; 25 µg/mL): 420 s
- minimum inhibitory concentration (MIC) [5]: 15.6 µg/mL (≈ 21.3 µM)
- time within which delayed leakage of PI occurred [6]: 30 to 45 min
- oligomers detected [7]: dimers, trimers, tetramers, and pentamers
- time within which ≥90% uptake in PI fluorescence was observed [8]: ≤ 3,360 s
- time within which ≥90% uptake in PI fluorescence was observed [9]: ≤ 2,760 s
- time within which ≥90% uptake in PI fluorescence was observed [10]: ≤ 3,240 s
- morphology by SEM, in words [11]: Minor morphological changes
- morphology by SEM, in words [12]: more significant cell damage
- morphology by SEM, in words [13]: Minor morphological changes
